Test results: article PMC9154793, “Design, synthesis, and biological evaluation of triazole-pyrimidine-methylbenzonitrile derivatives as dual A2A/A2B adenosine receptor antagonists” (Journal of Enzyme Inhibition and Medicinal Chemistry, 2022)
Read-outs that look alike come from different tables or passages of the source.

Key:
[1] = Metabolic stability in rat liver microsomes; assay type: in vitro ADME, Sprague–Dawley rats
Protocol: (§1) The metabolic stability is an important focus for further compound optimisation. Compounds 7f, 7i, and AB928 were chosen to evaluate the stability in rat liver microsomes and human liver microsomes. For the microsomal metabolic experiment, 7-ethoxycoumarin (7-EC) was used as a control. As shown in Table 4 (see Supporting information for raw data), the CLint(liver) of 7-EC in rats and humans was 10.0 and 9.0 ml/min/g liver, respectively, indicating the experimental test system was reliable.
(§2) Metabolic stabilities of compounds 7f, 7i, and AB928 in liver microsomes were studied with pooled human (male) liver microsomes solution (20 mg/ml) and male Sprague–Dawley rats pooled liver microsomes solution (20 mg/ml) purchased from Research Institute for Liver Diseases (Shanghai) Co. Ltd. Both liver microsomes solutions (140 μl) were diluted by 3948 μl of water and 280 μl of phosphate buffered saline. The assay procedure: 640 μl of diluted liver microsomes solution was added to a solution of compound working solution (16 μl, 25 μM in DMSO) and the mixed solution was incubated at 37 °C for 5 min. Then 160 μl of NADPH generating system was added and take out 100 μl from the mixed solution was added 200 μl of acetonitrile solution to stop the reaction at the set incubation time (0 min, 10 min, 20 min, 30 min, 40 min, 50 min, and 60 min). All stopped reaction solutions were vortex mixed (3 min) and centrifuged (10,000 rpm, 4 °C for 10 min). Then 50 μl of the supernatant was analysed by UPLC-MS/MS system (details of the analytical method see Supporting information). […]
(§3) 8. Metabolic stability in human and rat liver microsomes
(§4) Metabolic stabilities of compounds 7f, 7i and AB928 in liver microsomes were studied with pooled human (male) liver microsomes solution (20 mg/mL) and male Sprague - Dawley rats pooled liver microsomes solution (20 mg/mL) purchased from Research Institute for Liver Diseases (Shanghai) Co. Ltd. Both liver microsomes solutions (140 μL) were diluted by 3948 μL of water and 280 μL of phosphate buffered saline. The assay procedure: 640 μL of diluted liver microsomes solution was added to a solution of compound working solution (16 μL, 25 μM in DMSO) and the mixed solution was […]
(§5) (1 picture or pasted object on this page, not shown here) […]
(§6) incubated at 37 ℃ for 5 min. Then 160 μL of NADPH generating system was added and take out 100 μL from the mixed solution was added 200 μL of acetonitrile solution to stop the reaction at the set incubation time (0 min, 10 min, 20 min, 30 min, 40 min, 50 min, and 60 min). All stopped reaction solutions were vortex mixed (3 min) and centrifuged (10000 rpm, 4 ℃ for 10 min). Then 50 μL of the supernatant was analyzed […]
(§7) 8.2 Chromatography and mass spectrometry conditions
(§8) UPLC was performed using an […] UPLC system (Waters, Milford, MA, […]
(§9) USA). Separation was achieved on a Waters BEH C18 column(100 mm × 2.1 mm， 1.7 μm) at 40 ℃. The injection volume of the sample solution was 5 μL. The mobile phase consisted of water (0.1% formic acid and ammonium acetate) and acetonitrile solution (20:80, v/v) at a flow rate of 0.4 mL/min within a running time of 6 min. Mass spectrometric analysis was performed on a Waters Xevo TQ-S triple quadrupole instrument using electrospray ionization in positive mode. Quantification was performed using multiple reaction monitoring (MRM) mode to monitor precursor-product ion transitions (Table S1).
(§10) Table S1. Conditions of MRM Detection. […]
(§11) Table S2. Raw data of metabolic stability in human and rat liver microsomes. […]
(§12) (min) Hum Rat Hum Rat Hum Rat Hum Rat
(§13) 9. Analytical method of pharmacokinetics assay
(§14) Animal experiments were performed according to the institutional ethical guidelines on animal care and approved by the Institute Animal Care and Use Committee at Binzhou […]
(§15) Female Bal b/c mice (sourced from Jinan Pengyue Experimental Animal Breeding […]

human A2B AR = target: T1, human A2B AR (Homo sapiens, UniProt P29275); assay: cAMP functional assay in CHO-K1/ADORA2b/Gα15 cells (NECA-stimulated, HTRF); assay type: cell-based
T1 sequence (P29275 1-332): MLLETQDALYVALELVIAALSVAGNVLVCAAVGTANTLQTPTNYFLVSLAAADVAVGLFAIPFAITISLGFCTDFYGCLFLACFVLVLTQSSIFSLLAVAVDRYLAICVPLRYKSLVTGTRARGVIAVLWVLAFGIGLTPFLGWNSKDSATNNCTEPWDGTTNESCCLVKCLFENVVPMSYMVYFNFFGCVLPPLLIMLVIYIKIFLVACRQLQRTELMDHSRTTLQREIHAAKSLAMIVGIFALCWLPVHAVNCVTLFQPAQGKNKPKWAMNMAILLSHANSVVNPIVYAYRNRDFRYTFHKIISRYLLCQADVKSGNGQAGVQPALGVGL
Protocol: (§16) In the cAMP assay, CHO-K1/ADORA2A/Gα15 cells expressing human A2A AR and CHO-K1/ADORA2b/Gα15 cells expressing human A2B AR were activated by 5′-(N-ethylcarboxamido)adenosine (NECA) and triggered the accumulation of intracellular cAMP concentration.
(§17) CHO-K1/ADORA2A/Gα15 cells expressing human A2A AR and CHO-K1/ADORA2b/Gα15 cells expressing human A2B AR were both constructed by Genscript Biotech Corporation. […] The test stock solutions were diluted with different gradients for use. The procedure was exemplified by the cAMP functional assay on the A2A receptor: 10,000 cells/well of CHO-K1/ADORA2A/Gα15 were seeded in a 384-well plate in 20 μl of assay buffer. […] Then, 10 μl of detection reagent (cAMP-d2 and anti-cAMP-Eu3+) was added into each well of the plate and incubated at room temperature for 1 h.

[2] = Metabolic stability in human liver microsomes; assay type: in vitro ADME; conditions: human, microsomes
Protocol: as §1, §2, §3, §4, §5, §6, §7, §8, §9, §10, §11, §12, §13, §14, §15

human A2A AR [3] = target: T2, human A2A AR (Homo sapiens, UniProt P29274); assay: cAMP functional assay in CHO-K1/ADORA2A/Gα15 cells (NECA-stimulated, HTRF); assay type: cell-based; conditions: for fold less active than compound 7i (cAMP IC50, A2A receptor): ratio of cAMP IC50 values vs 7i;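 as to all read-outs here: inhibition of NECA-driven intracellular cAMP build-up in the A2A-expressing cells, quantified with cAMP-d2 plus Eu3+-labelled anti-cAMP detection reagent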
Protocol: as §16, §17

human A2A AR [4] = target: T2, human A2A AR; assay: A2A AR radioligand binding assay ([3H]-ZM241385, HEK-293 cell membranes)
Protocol: We further tested the IC50 values of compounds 7f, 7i, 17, 22, and AB928 in inhibiting the cAMP production of CHO cells expressing hA2A AR or hA2B AR (Table 2). […] In addition, the competitive binding experiments of compounds 7f, 7i, and AB928 were performed using membrane preparation of HEK-293 cells expressing human A2A AR (Table 3).
The target compounds were tested to evaluate their affinity for the A2A AR on HEK-293 cell membranes expressing human A2A AR. [^3H]-ZM241385 was used as a radioligand. The assay buffer (50 mM Tris-HCl, pH 7.4; 10 mM MgCl2; 1 mM EDTA; 1 μg/ml adenosine deaminase), wash buffer (50 mM Tris-HCl, pH 7.4; 154 mM NaCl), and 0.5% PEI solution were prepared and stored at 4 °C for use. The affinities were tested following the procedure reported by Hu et al[4].

[5] = CHO-K1, compound at 100 nM, relative to ZM241385 at 1 μM, mean ± SEM, read-out: hA2B AR (%) inhibition of cAMP, 100 nM
[6] = CHO-K1, compound at 10 nM, relative to ZM241385 at 1 μM, mean ± SEM, read-out: hA2A AR (%) inhibition of cAMP, 10 nM
[7] = CHO-K1, compound at 100 nM, relative to ZM241385 at 1 μM, mean ± SEM, read-out: hA2A AR (%) inhibition of cAMP, 100 nM
[8] = CHO-K1, compound at 1000 nM, relative to ZM241385 at 1 μM, mean ± SEM, read-out: hA2A AR (%) inhibition of cAMP, 1000 nM
[9] = CHO cells expressing hA2B AR, mean ± SEM, read-out: cAMP IC50 hA2B AR
[10] = CHO cells expressing hA2A AR, mean ± SEM, read-out: cAMP IC50 hA2A AR

T2 sequence (P29274 whole entry): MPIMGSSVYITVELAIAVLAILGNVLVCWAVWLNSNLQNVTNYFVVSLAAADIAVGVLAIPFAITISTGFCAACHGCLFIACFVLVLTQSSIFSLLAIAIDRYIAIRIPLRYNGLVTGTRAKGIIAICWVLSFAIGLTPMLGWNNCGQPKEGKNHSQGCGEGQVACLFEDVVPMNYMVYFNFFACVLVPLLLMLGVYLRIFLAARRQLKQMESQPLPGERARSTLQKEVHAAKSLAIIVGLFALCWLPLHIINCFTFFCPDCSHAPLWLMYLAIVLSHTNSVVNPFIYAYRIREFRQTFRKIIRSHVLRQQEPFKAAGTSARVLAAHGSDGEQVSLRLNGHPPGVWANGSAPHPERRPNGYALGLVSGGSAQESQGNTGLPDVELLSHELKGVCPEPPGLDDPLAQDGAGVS

SMILES: Cc1c(C#N)cccc1-c1cc(-c2cn(Cc3cccc(C(C)(C)O)n3)nn2)nc(N)n1 [AB928, reference compound]
- remaining at 10 min, 0.49 µM ([1]; male, Sprague-Dawley, pooled rat liver microsomes, rat liver microsomes, 10 min): 74.7%
- remaining at 20 min, 0.49 µM ([1]; male, Sprague-Dawley, pooled rat liver microsomes, rat liver microsomes, 20 min): 67.4%
- remaining at 0.5 h, 0.49 µM ([1]; male, Sprague-Dawley, pooled rat liver microsomes, rat liver microsomes, 30 min): 53.1%
- remaining at 40 min, 0.49 µM ([1]; male, Sprague-Dawley, pooled rat liver microsomes, rat liver microsomes, 40 min): 42.8%
- remaining at 50 min, 0.49 µM ([1]; male, Sprague-Dawley, pooled rat liver microsomes, rat liver microsomes, 50 min): 35.6%
- remaining at 1 h, 0.49 µM ([1]; male, Sprague-Dawley, pooled rat liver microsomes, rat liver microsomes, 60 min, read-out: Remaining (%, T = 60min) Rat): 28.1%
- half-life at 0.49 µM ([1]; male, Sprague-Dawley, rat, pooled rat liver microsomes, read-out: T1/2 Rat): 0.563 h
- CLint(liver) Rat ([1]; rat liver microsomes): 2.15 mL/min/g
- IC50 (human A2B AR): 25.5 ± 0.35 nM
- inhibition at 0.1 µM (human A2B AR; CHO-K1, read-out: hA2B AR (%) inhibition of cAMP, 100 nM): 103 ± 1.04%
- CLint(liver) Hum [2]: 0.17 mL/min/g
- half-life at 0.49 µM ([2]; male): 7.22 h
- remaining at 10 min, 0.49 µM ([2]; male): 96.2%
- remaining at 20 min, 0.49 µM ([2]; male): 104%
- remaining at 0.5 h, 0.49 µM ([2]; male): 97%
- remaining at 40 min, 0.49 µM ([2]; male): 91.8%
- remaining at 50 min, 0.49 µM ([2]; male): 89%
- remaining at 1 h, 0.49 µM ([2]; male): 94.4%
- IC50 (human A2A AR [3]): 2.75 ± 0.12 nM
- inhibition at 0.01 µM (human A2A AR [3]; CHO-K1, read-out: hA2A AR (%) inhibition of cAMP, 10 nM): 20 ± 6.46%
- inhibition at 0.1 µM (human A2A AR [3]; CHO-K1, read-out: hA2A AR (%) inhibition of cAMP, 100 nM): 96.8 ± 7.16%
- inhibition at 1 µM (human A2A AR [3]; CHO-K1, read-out: hA2A AR (%) inhibition of cAMP, 1000 nM): 101 ± 5.55%
- IC50 (human A2A AR [4]): 25.2 ± 0.74 nM

SMILES: Cc1c(C#N)cccc1-c1cc(-c2cn(Cc3cccc(C(=O)NCCO)n3)nn2)nc(N)n1 [Compound 7j, 6-((4-(2-Amino-6-(3-cyano-2-methylphenyl)pyrimidin-4-yl)-1H-1,2,3-triazol-1-yl)methyl)-N-(2-hydroxyethyl)picolinamide]
- inhibition at 0.1 µM (human A2B AR; [5]): 82.4 ± 4.52%
- inhibition at 0.01 µM (human A2A AR [3]; [6]): 22.4 ± 6.68%
- inhibition at 0.1 µM (human A2A AR [3]; [7]): 82.2 ± 1.26%
- inhibition at 1 µM (human A2A AR [3]; [8]): 101 ± 4.62%
- melting point: 208 to 209 °C

SMILES: COc1cccc(Cn2cc(-c3cc(-c4cccc(C#N)c4C)nc(N)n3)nn2)c1 [Compound 7m, 3-(2-Amino-6-(1-(3-methoxybenzyl)-1H-1,2,3-triazol-4-yl)pyrimidin-4-yl)-2-methylbenzonitrile]
- inhibition at 0.1 µM (human A2B AR; [5]): 69.4 ± 4.01%
- inhibition at 0.01 µM (human A2A AR [3]; [6]): 21.5 ± 4.32%
- inhibition at 0.1 µM (human A2A AR [3]; [7]): 28.6 ± 4.03%
- inhibition at 1 µM (human A2A AR [3]; [8]): 69.6 ± 1.01%
- melting point: 163 to 164 °C

SMILES: COc1ccc(Cn2cc(-c3cc(-c4cccc(C#N)c4C)nc(N)n3)nn2)cc1 [Compound 7n, 3-(2-Amino-6-(1-(4-methoxybenzyl)-1H-1,2,3-triazol-4-yl)pyrimidin-4-yl)-2-methylbenzonitrile]
- inhibition at 0.1 µM (human A2B AR; [5]): 63.5 ± 4.93%
- inhibition at 0.01 µM (human A2A AR [3]; [6]): 18.8 ± 3.88%
- inhibition at 0.1 µM (human A2A AR [3]; [7]): 29.8 ± 0.38%
- inhibition at 1 µM (human A2A AR [3]; [8]): 54.8 ± 2.41%
- melting point: 149 to 150 °C

SMILES: Cc1ccc(-c2cc(-c3cn(Cc4cccc(C(C)(C)O)n4)nn3)nc(N)n2)o1 [Compound 17, 2-(6-((4-(2-Amino-6-(5-methylfuran-2-yl)pyrimidin-4-yl)-1H-1,2,3-triazol-1-yl)methyl)pyridin-2-yl)propan-2-ol]
- IC50 (human A2B AR; [9]): 80 ± 13.4 nM
- inhibition at 0.1 µM (human A2B AR; [5]): 64.4 ± 0.89%
- IC50 (human A2A AR [3]; [10]): 321 ± 94 nM
- inhibition at 0.01 µM (human A2A AR [3]; [6]): 17.6 ± 2.78%
- inhibition at 0.1 µM (human A2A AR [3]; [7]): 92.28 ± 0.61%
- inhibition at 1 µM (human A2A AR [3]; [8]): 92.7 ± 2.87%
- fold less active than compound 7i (cAMP IC50, A2A receptor) (human A2A AR [3]): 52 fold
- melting point: 188 to 189 °C

SMILES: CC(C)(O)c1cccc(Cn2cc(-c3cc(-c4cccc(CF)c4)nc(N)n3)nn2)n1 [Compound 22, 2-(6-((4-(2-amino-6-(3-(fluoromethyl)phenyl)pyrimidin-4-yl)-1H-1,2,3-triazol-1-yl)methyl)pyridin-2-yl)propan-2-ol]
- IC50 (human A2B AR; [9]): 178 ± 9.89 nM
- inhibition at 0.1 µM (human A2B AR; [5]): 19.9 ± 1.85%
- IC50 (human A2A AR [3]; [10]): 67.2 ± 10.9 nM
- inhibition at 0.01 µM (human A2A AR [3]; [6]): 22.4 ± 11.9%
- inhibition at 0.1 µM (human A2A AR [3]; [7]): 94.7 ± 4.43%
- inhibition at 1 µM (human A2A AR [3]; [8]): 93.6 ± 2.76%
- fold less active than compound 7i (cAMP IC50, A2A receptor) (human A2A AR [3]): 11 fold
- melting point: 76 to 77 °C
